Experimental data as given in patent US4886886A, “Substituted 1,3,4,9-tetrahydropyrano[3,4-b]indole-1-acetic acids” (American Home Products Corporation, priority 1988, dated 1989).

Experiments:
[1] = tested on: Adjuvant Edema; assay: Preventative Adjuvant Edema; assay type: in vivo, Male Sprague Dawley rats; settings: rat, given days 0, 1 and 2, edema volume on day 3; for Preventative Adjuvant Edema, percent inhibition: 25 mg/kg p.o.
Experimental: This test is a primary screen for anti-inflammatory drugs.
Male Sprague Dawley rats (180-200 g) are used. The animals have free access to water but food is withdrawn 18 hours before testing.
Drug Preparations and Administration:
Freund's complete adjuvant is prepared by suspending 5 mg of killed and dried Mycobacterium butyricum (Difco) in 1 mL mineral oil. The test compounds are dissolved, or suspended in 0.5% Tween 80 in distilled water according to their solubility. For primary screening all drugs are administered by gastric lavage at the arbitrary dosage of 25 mg/kg, p.o. in a volume of 0.5 mL/100 g body weight to groups of 10 animals.
The method is essentially that described by Wax et al, J. Pharmacol. Exp. Ther., 192, 166-171 (1975). Groups of rats are injected intradermally in the left hind paw with 0.1 mL of Freund's complete adjuvant. The test compound or vehicle is administered immediately before the adjuvant, 24 hours and 48 hours after the adjuvant (days 0, 1 and 2). The injected hind paw volume is measured before the injection of adjuvant and 24 hrs. after the last drug administration (day 3) by means of a plethysmometer (Buxco Electronics Inc.). The difference between the hind paw volume on day 0 and day 3 represents the edema volume. Etodolac (25 mg/kg, p.o.) is included as a positive control.
The mean edema volume (expressed as mL±SEM) is calculated for each group and the percentage protection conferred by the drug is calculated: [formula] where c is the mean edema volume for the vehicle-treated (0.5% Tween 80 in distilled water) controls and t is the mean edema volume for the drug treated group.

[2] = tested on: Phenylbenzoquinone-induced Writhing; assay: Drug Effects on Phenylbenzoquinone-induced Writhing in Mice; assay type: in vivo, Male Swiss albino mice; settings: mouse, 60 min before PBQ
Experimental: A further test used to determine the utility of the compounds of the present invention is designated: Drug Effects on Phenylbenzoquinone-induced Writhing in Mice
The objective of this test is to determine the ability of test drugs to inhibit the nociceptive (pain) response of mice injected with a chemical irritant. This test is a primary screen for both peripheral and centrally acting analgesic drugs.
Male Swiss albino mice (15-25 g). The animals are fasted for 18 hours prior to use but have free access to water.
(§1) Drug Preparation and Administration:
Drugs are dissolved or suspended according to their solubility in 0.5% Tween 80 in distilled water. They are administered by gastric gavage in a volume of 5 mL/kg. For primary screening all drugs are administered at the arbitary dosage of 25 mg/kg, p.o. to a group of 10 mice.
A modification of the method of Siegmund et al, Proc. Soc. Exp. Biol. Med., 95, 729-731 […] is used. Groups of 5 mice are dosed with the test compound or vehicle control. Sixty minutes later the animals are injected i.p. with 0.3 mL/20 g body weight of a 0.02% solution of phenylbenzoquinone (PBQ; 2-phenyl-1,4-benzoquinone) and placed in individual observation boxes. The number of writhing or abdominal squirming movements made by each mouse during the following 15 min. period is counted. The experiment is repeated with another group of 5 mice and the mean number of writhes per mouse for a group of 10 mice is calculated.
Drug treated and vehicle-treated control groups are compared and the percentage protection conferred by the drug is calculated: [formula]
where c=mean number of writhes in the control group
where t=mean number of writhes in the test drug group

[3] = tested on: reaction of rats to painful stimulation applied to an inflamed paw; assay: Randall Selitto Test in the Rat; assay type: in vivo, Male Sprague Dawley rats; settings: po, by gastric gavage, 24 hours after adjuvant, pain threshold 1 hour later, read-out: Randall Selitto, ED50 (dose which causes analgesia in 50% of the animals)
Excerpt: An additional test used to determine the utility of the compounds of the present invention is designated: Randall Selitto Test in the Rat
The objective of this test is to assess the potency of peripheral and central acting drugs in inhibiting the reaction of rats to painful stimulation applied to an inflamed paw.
Male Sprague Dawley rats (180-200 g) are used. The animals are fasted overnight prior to drug administration.
as §1
Freund's Complete Adjuvant (FCA) is prepared by suspending 5 mg killed and dried mycobacterium butyricum (Difco) in 1 mL mineral oil. The test compounds are dissolved or suspended in 0.5% Tween 80 in distilled water according to their solubility. They are administered by gastric gavage in a volume of 0.5 mL/100 g body weight to groups of 10 animals.
Ten rats are used per group. The method is essentially that described by Randall and Selitto, Arch. Int. Pharmacodyn. […] The force is continuously monitored by a pointer moving along a linear scale and is measured in grams. […] The pain threshold (vocalization) is determined 1 hour later in the inflamed paw of the treated and control groups. […]
Each animal which has a reading 1.5 times greater than the mean reading of the control-group will be considered as responsive (having an analgesic effect) to treatment. The number of animals showing an analgesic effect is then determined in each group. […]

Structure (SMILES)	Preventative Adjuvant Edema, percent inhibition [1] [percent inhibition]	Phenylquinone Writhing in Mice, percent inhibition ([2]; 10 mg/kg p.o.) [percent inhibition]	ED50 ([2]; po, 1 h, p.o., read-out: Phenylquinone Writhing in Mice, ED50) [mg/kg]	ED50 [3] [mg/kg]	ED50 ([1]; po, 72 h, p.o.) [mg/kg]	Phenylquinone Writhing in Mice, percent inhibition ([2]; 200 mg/kg p.o.) [percent inhibition]
C=CCc1cccc2c3c([nH]c12)C(CC)(CC(=O)O)OCC3C (single isomer, unassigned) [Example 3, 1-Ethyl-1,3,4,9-tetrahydro-4-methyl-8-(2-propenyl)-pyrano[3,4-b]indole-1-acetic Acid]	57	20				
C=CCc1c(F)ccc2c3c([nH]c12)C(CC)(CC(=O)O)OCC3 (stereo not shown) [Example 1, 1-Ethyl-7-fluoro-1,3,4,9-tetrahydro-8-(2-propenyl)-pyrano[3,4-b]indole-1-acetic Acid]	83		54.7	0.7		
C=CCc1cccc2c3c([nH]c12)C(CC)(CC(=O)O)OCC3 (stereo not shown) [Example 2, 1-Ethyl-1,3,4,9-tetrahydro-8-(2-propenyl)-pyrano[3,4-b]-1-acetic Acid]					9	42
